# Data taken from patent US11873298B2, “Compounds and uses thereof” (JANSSEN PHARMACEUTICA NV, priority 2017, dated 2024).
# Assays:
# [1] = biological target: T1, SCD1 (Homo sapiens, UniProt O00767); test: Growth inhibition of humanized yeast strain expressing SCD1 as sole desaturase; format: cell-based; details: growth inhibition of humanized yeast strain expressing human SCD1
# T1 construct: host or cells: S. cerevisiae ole1Δ strain (W303 pdr1Δ pdr3Δ background), plasmid pRS316 with TDH3 promoter and CYC1 terminator
# T1 sequence (O00767 1-359): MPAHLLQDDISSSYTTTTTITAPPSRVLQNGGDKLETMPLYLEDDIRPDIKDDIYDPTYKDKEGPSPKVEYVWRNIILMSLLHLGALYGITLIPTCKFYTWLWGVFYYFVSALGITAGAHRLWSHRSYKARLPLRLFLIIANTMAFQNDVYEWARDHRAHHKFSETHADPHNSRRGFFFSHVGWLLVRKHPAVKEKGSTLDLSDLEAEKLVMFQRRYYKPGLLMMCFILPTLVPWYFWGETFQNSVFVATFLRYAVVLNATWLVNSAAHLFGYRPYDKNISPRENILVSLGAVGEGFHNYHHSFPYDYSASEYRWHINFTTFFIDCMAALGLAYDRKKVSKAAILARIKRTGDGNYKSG
# Method in brief: (§1)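 OD600 growth read-out. ole1Δ yeast, pdr1Δ pdr3Δ, with Ole1/SCD1/SCD5 on a plasmid; SX-Ura media throughout; 2× cell density 0.02 in CSM-Galactose; DMSO compound dilutions; humidified 30° C.; Ole1 stopped at 24 h, SCD1/SCD5 at 40 h.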
# [2] = biological target: T2, SCD5 (Homo sapiens, UniProt Q86SK9); test: Growth inhibition of humanized yeast strain expressing SCD5 as sole desaturase; format: cell-based; details: growth inhibition of humanized yeast strain expressing human SCD5
# T2 construct: host or cells: S. cerevisiae ole1Δ strain (W303 pdr1Δ pdr3Δ background), plasmid pRS316 with TDH3 promoter and CYC1 terminator
# T2 sequence (Q86SK9 1-330): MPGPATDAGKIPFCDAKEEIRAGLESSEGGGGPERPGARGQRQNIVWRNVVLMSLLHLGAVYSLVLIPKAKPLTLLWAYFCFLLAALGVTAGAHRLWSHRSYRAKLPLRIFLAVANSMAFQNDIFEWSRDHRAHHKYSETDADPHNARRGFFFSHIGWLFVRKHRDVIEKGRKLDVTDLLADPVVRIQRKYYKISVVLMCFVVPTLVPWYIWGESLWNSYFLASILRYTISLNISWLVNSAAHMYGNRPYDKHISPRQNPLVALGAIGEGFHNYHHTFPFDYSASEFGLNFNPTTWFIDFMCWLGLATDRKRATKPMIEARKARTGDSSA
# Method in brief: as §1
Compound,IC50 [1] [µM],IC50 [2] [nM]
CC(C)n1ncc2ccc(-c3nnc(C4CCN(C(=O)CC5(C)CC5)CC4)[nH]3)cc21 [Compound 691],> 45,> 45000
CC(C)n1ncc2ccc(-c3nc(C4CCN(C(=O)c5ncccc5Cl)CC4)no3)cc21 [Compound 692],> 45,492
CC1(CC(=O)N2CCN(c3nc(-c4ccc5cnn(C6COC6)c5c4)no3)CC2)CC1 [Compound 693],> 45,1670
CC(C)(C)CC(=O)N1CCC(c2nc(-c3ccc4cnn(C(=O)C5COC5)c4c3)no2)CC1 [Compound 694],> 45,> 45000
O=C(c1ncccc1Cl)N1CCC(c2noc(-c3ccc4cnn(C5COC5)c4c3)n2)CC1 [Compound 695],> 45,2390
O=C(c1ccccc1F)N1CCC(c2noc(-c3ccc4cnn(C5COC5)c4c3)n2)CC1 [Compound 696],> 45,80
O=C(c1ccccc1Cl)N1CCC(c2noc(-c3ccc4cnn(C5COC5)c4c3)n2)CC1 [Compound 697],> 45,59
O=C(c1sccc1Cl)N1CCC(c2noc(-c3ccc4cnn(C5COC5)c4c3)n2)CC1 [Compound 698],> 45,26
CC(C)n1nc(CCO)c2ccc(-c3noc(C4CCN(C(=O)OC(C)(C)C)CC4)n3)cc21 [Compound 699],> 45,7650
CC(C)(C)OC(=O)N1CC(c2nc(-c3ccc4cnn(C5COC5)c4c3)no2)C1 [Compound 700],> 45,703
CC(C)(C)OC(=O)N1CCN(c2nc(-c3ccc4cn(C5COC5)nc4c3)no2)CC1 [Compound 701],> 45,> 45000
COCCc1nn(C(C)C)c2cc(-c3noc(C4CCN(C(=O)OC(C)(C)C)CC4)n3)ccc12 [Compound 702],> 45,> 45000
CC(C)n1ncc2ccc(-c3noc(C4CCN(C(=O)C5(C)CCCO5)CC4)n3)cc21 (stereo not drawn) [Compound 703],> 45,121
Cc1nnc(N2CCC(c3nc(-c4ccc5cnn(C(C)C)c5c4)no3)CC2)o1 [Compound 704],> 45,1680
CC(C)n1ncc2ccc(-c3noc(C4CCN(C(=O)C56CC(C5)C6)CC4)n3)cc21 [Compound 705],14.4,174
CC(C)n1ncc2ccc(-c3noc(C4CCN(C(=O)C5CCCN5C)CC4)n3)cc21 (stereo not drawn) [Compound 706],> 45,> 45000
CC(C)(C)CC(=O)N1CC(c2nc(-c3ccc4cnn(C5COC5)c4c3)no2)C1 [Compound 707],> 45,14500
CC(C)(C)OC(=O)N1CC(c2nc(-c3ccc4cn(C5COC5)nc4c3)no2)C1 [Compound 708],> 45,> 45000
CC(C)(C)COC(=O)N1CC(c2nc(-c3ccc4cnn(C5COC5)c4c3)no2)C1 [Compound 709],> 45,4770
CC(=O)N1CC(n2ncc3ccc(-c4noc(C5CCN(C(=O)OC(C)(C)C)CC5)n4)cc32)C1 [Compound 710],> 45,50
CC(=O)N1CC(n2cc3ccc(-c4noc(C5CCN(C(=O)OC(C)(C)C)CC5)n4)cc3n2)C1 [Compound 711],> 45,> 45000
O=C(c1ccccc1)N1CCN(c2noc(-c3ccc4cnn(C5COC5)c4c3)n2)CC1 [Compound 712],> 45,16
COC(=O)N1CCN(c2noc(-c3ccc4cnn(C5COC5)c4c3)n2)CC1 [Compound 713],5.58,10
CC(C)n1ncc2ccc(-c3nc(C4CCN(C(=O)c5ncccc5F)CC4)no3)cc21 [Compound 714],> 45,230

Compound,IC50 [1] [µM],IC50 [2] [nM]
CC(C)n1ncc2ccc(-c3nc(C4CCN(C(=O)c5sccc5Cl)CC4)no3)cc21 [Compound 715],> 45,48
CC(C)n1ncc2ccc(-c3nc(C4CCN(C(=O)c5ncccn5)CC4)no3)cc21 [Compound 716],> 45,> 45000
CC(C)n1ncc2ccc(-c3noc(C4CCN(C(=O)C(C)(C)C#N)CC4)n3)cc21 [Compound 717],> 45,1700
O=C(c1sccc1Cl)N1CCC(c2nc(-c3ccc4cnn(C5COC5)c4c3)no2)CC1 [Compound 718],> 45,635
CC(C)(C)OC(=O)N1CCC(c2nc(-c3ccc4cn(C5CCCOC5)nc4c3)no2)CC1 (stereo not drawn) [Compound 719],> 45,> 45000
CC(C)(C)OC(=O)N1CCC(c2nc(-c3ccc4cnn(C5CCCOC5)c4c3)no2)CC1 (stereo not drawn) [Compound 720],> 45,1970
CC(C)(C)OC(=O)N1CCN(c2nc(-c3ccc4cnn(C5CCC5)c4c3)no2)CC1 [Compound 721],> 45,1650
CC(C)n1ncc2ccc(-c3nc(C4CCN(C(=O)C5(O)CC5)CC4)no3)cc21 [Compound 722],> 45,1370
CC(C)c1noc2ccc(-c3noc(C4CCNCC4)n3)cc12 [Compound 723],> 45,> 45000
CC1(OC(=O)N2CC(c3nc(-c4ccc5cnn(C6COC6)c5c4)no3)C2)CC1 [Compound 724],> 45,1250
O=C(c1ccccc1F)N1CCN(c2noc(-c3ccc4cnn(C5COC5)c4c3)n2)CC1 [Compound 725],5.99,11
O=C(c1ccccc1Cl)N1CCN(c2noc(-c3ccc4cnn(C5COC5)c4c3)n2)CC1 [Compound 726],5.65,10
CC(C)(C)CC(=O)N1CCC(c2nc(-c3ccc4cnn(C(=O)C5CCO5)c4c3)no2)CC1 (stereo not drawn) [Compound 727],> 45,> 45000
CC(C)(C)OC(=O)N1CCC(c2nc(-c3ccc4cnn(C5CNC5)c4c3)no2)CC1 [Compound 728],> 45,126
CC(C)(C)OC(=O)N1CCN(c2nc(-c3ccc4cn(C5CCC5)nc4c3)no2)CC1 [Compound 729],> 45,> 45000
CC(C)(C)OC(=O)N1CCC(c2nc(-c3ccc4cnn(C5CCC5)c4c3)no2)CC1 [Compound 730],> 45,718
CC(C)(C)OC(=O)N1CCC(c2nc(-c3ccc4cn(C5CCC5)nc4c3)no2)CC1 [Compound 731],> 45,> 45000
CC(C)(C)CC(=O)N1CCC(c2nc(-c3ccc4cn[nH]c4c3)no2)CC1 [Compound 732],> 45,31800
CC(C)n1ncc2ccc(-c3ccc(C4CCN(C(=O)OC(C)(C)C)C4)nn3)cc21 (stereo not drawn) [Compound 733],> 45,2730
COC(=O)N1CCC(c2nc(-c3ccnc(Cl)c3)no2)CC1 [Compound 734],> 45,> 45000
CC1(OC(=O)N2CCN(c3noc(-c4ccc5cnn(C6COC6)c5c4)n3)CC2)CC1 [Compound 735],3.99,10
CC(C)(C)OC(=O)N1CCC(c2nc(-c3ccc4cnn(C(C)(C)CO)c4c3)no2)CC1 [Compound 736],32.6,260
CN(C)CC(=O)N1CCN(c2nc(-c3ccc4cnn(C5COC5)c4c3)no2)CC1 [Compound 737],> 45,> 45000
C=C(F)/C=C/n1ncc2ccc(-c3noc(C4CCN(C(=O)OC(C)(C)C)CC4)n3)cc21 [Compound 738],> 45,> 45000
